The source of these data is patent US20250099596A1, “TETRAHYDRONAPHTHALENE COMPOUND, AND PREPARATION METHOD THEREFOR AND USE THEREOF IN MEDICINE” (Jiangsu Hengrui Pharmaceuticals Co., Ltd., priority 2021, published 2025).

One assay deals with MCF7 cells. Briefly: Inhibitory effects on MCF7 cell proliferation (CellTiter-Glo). Format: cell-based. The following applies: Homo sapiens, 144 h, 6 days incubation, read-out: IC50 (nM), inhibition of MCF7 cell proliferation. The method, then: (§1) MCF7 cells (TCHu74, National Collection of Authenticated Cell Cultures) were cultured in an MEM (GE Healthcare, SH30024.01) complete medium containing 10% fetal bovine serum. On day 1 of the experiment, MCF7 cells were seeded into a 96-well plate at a density of 3,000 cells/well using MEM containing 2% fetal bovine serum, with each well containing 135 μL of cell suspension. The plate was incubated in a 37° C., 5% CO2 cell incubator overnight. The next day, different concentrations of test compounds prepared in media were added at 15 μL/well. The final concentrations of the compounds were 9 concentration points obtained by 4-fold serial dilution from 1000 nM. A blank control containing 0.5% DMSO was set up. The plate was incubated in a 37° C., 5% CO2 cell incubator for 6 days. On day 8, the 96-well cell culture plate was taken out, and CellTiter-Glo® Luminescent Cell Viability Assay (Promega, G7573) was added at 75 μL/well. After the plate was left at room temperature for 10 min, luminescence signal readings were taken on a multilabel microplate reader (PerkinElmer, VICTOR 3). The IC50 values for the inhibitory activity of the compounds were calculated from the concentrations of the compounds and the luminescence signal readings using Graphpad Prism software.
(In general: ATP-based viability assays read luminescence as a measure of living cells.)

The subject of another assay is MCF7/ERα Y537S cells. Nature of the assay: Inhibitory activity on proliferation of ERα mutant-expressing MCF7 cells. Format: cell-based. The following applies: Homo sapiens, 144 h, 6 days incubation, CellTiter-Glo, read-out: IC50 (nM), inhibition of proliferation of ERα mutant-expressing MCF7 cells. On the procedure:
The objective of this experiment was to determine the inhibitory activity of the compounds of the present disclosure on the proliferation of ERα mutant-expressing MCF7 cells.
as §1, with “cells expressing the ERα Y537S mutant were constructed by lentiviral infection. MCF7/ERα Y537S cells” for “cells (TCHu74, National Collection of Authenticated Cell Cultures)”, “bovine serum and […] puromycin.” for “bovine serum.”, “experiment,” for “experiment, MCF7”, “135 µL” for “135 μL”, “75 µL/well.” for “75 μL/well.”

In the case of `O=C1CCC(N2Cc3cc(N4CCN(CC5CCN(c6ccc([C@@H]7c8ccc(O)cc8CC[C@@H]7C7CCOCC7)cc6F)CC5)CC4)ccc3C2=O)C(=O)N1` (mixture of isomers) [Example 4-1, 3-(5-(4-((1-(2-Fluoro-4-((1R,2R)-6-hydroxy-2-(tetrahydro-2H-pyran-4-yl)-1,2,3,4-tetrahydronaphthalen-1-yl)phenyl)piperidin-4-yl)methyl)piperazin-1-yl)-1-oxoisoindolin-2-yl)piperidine-2,6-dione], the results for the IC50 with MCF7 cells and in the assay on MCF7/ERα Y537S cells were 0.92 nM and 4.71 nM, respectively.
Consider `O=C1CCC(N2Cc3cc(N4CCN(CC5CCN(c6ccc([C@@H]7c8ccc(O)cc8CC[C@@H]7CC7CC7)cc6)CC5)CC4)ccc3C2=O)C(=O)N1` (stereo in doubt) [Example 34, (S)-3-(5-(4-((1-(4-((1R,2R)-2-(Cyclopropylmethyl)-6-hydroxy-1,2,3,4-tetrahydronaphthalen-1-yl)phenyl)piperidin-4-yl)methyl)piperazin-1-yl)-1-oxoisoindolin-2-yl)piperidine-2,6-dione], for which the figures for the IC50 with MCF7 cells and in the assay on MCF7/ERα Y537S cells were 1.51 nM and 19.2 nM, respectively.
Consider `O=C1CCC(N2Cc3cc(N4CCN(CC5CCN(c6ccc([C@@H]7c8ccc(O)cc8CC[C@@H]7C7CC7)cc6)CC5)CC4)ccc3C2=O)C(=O)N1` (stereo partly drawn) [Example 16, 3-(5-(4-((1-(4-((1,2)-cis-2-Cyclopropyl-6-hydroxy-1,2,3,4-tetrahydronaphthalen-1-yl)phenyl)piperidin-4-yl)methyl)piperazin-1-yl)-1-oxoisoindolin-2-yl)piperidine-2,6-dione], for which the IC50 in the assay on MCF7 cells is 4.63 nM; in the assay on MCF7/ERα Y537S cells it was 14.9 nM.
For `O=C1CC[C@H](N2Cc3cc(N4CCN(CC5CCN(c6ccc([C@@H]7c8ccc(O)cc8CC[C@@H]7CC7CCC7)cc6)CC5)CC4)ccc3C2=O)C(=O)N1` [Example 35, (S)-3-(5-(4-((1-(4-((1R,2R)-2-(Cyclobutylmethyl)-6-hydroxy-1,2,3,4-tetrahydronaphthalen-1-yl)phenyl)piperidin-4-yl)methyl)piperazin-1-yl)-1-oxoisoindolin-2-yl)piperidine-2,6-dione], the values for the IC50 in the assay with MCF7 cells and in the assay on MCF7/ERα Y537S cells were 3 nM and 8.48 nM, respectively.
In the case of `CCC[C@H]1CCc2cc(O)ccc2[C@H]1c1ccc(N2CCC(CN3CCN(c4ccc5c(c4)CN([C@H]4CCC(=O)NC4=O)C5=O)CC3)CC2)cc1` [Example 29, (S)-3-(5-(4-((1-(4-((1R,2S)-6-Hydroxy-2-propyl-1,2,3,4-tetrahydronaphthalen-1-yl)phenyl)piperidin-4-yl)methyl)piperazin-1-yl)-1-oxoisoindolin-2-yl)piperidine-2,6-dione], the figures for the IC50 in the assay on MCF7 cells and with MCF7/ERα Y537S cells were 0.78 nM and 3.62 nM, respectively.
Consider `O=C1CCC(N2Cc3cc(N4CCN(CC5CCN(c6ccc(C7c8ccc(O)cc8CC[C@@H]7C7CCC(F)(F)CC7)cc6)CC5)CC4)ccc3C2=O)C(=O)N1` (stereo partly drawn) [Example 9, 3-(5-(4-((1-(4-((1,2)-cis-2-(4,4-Difluorocyclohexyl)-6-hydroxy-1,2,3,4-tetrahydronaphthalen-1-yl)phenyl)piperidin-4-yl)methyl)piperazin-1-yl)-1-oxoisoindolin-2-yl)piperidine-2,6-dione], for which the IC50 with MCF7 cells was found to be 2.14 nM; in the assay with MCF7/ERα Y537S cells, 8.73 nM.
In the case of `O=C1CC[C@H](N2Cc3cc(N4CCN(CC5CCN(c6ccc([C@@H]7c8ccc(O)cc8CC[C@@H]7C7CCCC7)cc6F)CC5)CC4)ccc3C2=O)C(=O)N1` [Example 19, (S)-3-(5-(4-((1-(4-((1R,2R)-2-cyclopentyl-6-hydroxy-1,2,3,4-tetrahydronaphthalen-1-yl)-2-fluorophenyl)piperidin-4-yl)methyl)piperazin-1-yl)-1-oxoisoindolin-2-yl)piperidine-2,6-dione], the figures for the IC50 in the assay on MCF7 cells and in the assay on MCF7/ERα Y537S cells were 0.87 nM and 5.04 nM, respectively.
For `C[C@H]1CCc2cc(O)ccc2[C@H]1c1ccc(N2CCC(CN3CCN(c4ccc5c(c4)CN([C@H]4CCC(=O)NC4=O)C5=O)CC3)CC2)cc1` [Example 27, (S)-3-(5-(4-((1-(4-((1R,2S)-6-Hydroxy-2-methyl-1,2,3,4-tetrahydronaphthalen-1-yl)phenyl)piperidin-4-yl)methyl)piperazin-1-yl)-1-oxoisoindolin-2-yl)piperidine-2,6-dione], in that order: 13.4 nM and 44.6 nM.
For the compound `CCC(CC)C[C@H]1CCc2cc(O)ccc2[C@H]1c1ccc(N2CCC(CN3CCN(c4ccc5c(c4)CN([C@H]4CCC(=O)NC4=O)C5=O)CC3)CC2)cc1` [Example 38, (S)-3-(5-(4-((1-(4-((1R,2R)-6-Hydroxy-2-(2-ethylbutyl)-1,2,3,4-tetrahydronaphthalen-1-yl)phenyl)piperidin-4-yl)methyl)piperazin-1-yl)-1-oxoisoindolin-2-yl)piperidine-2,6-dione], the IC50 with MCF7 cells is 4.64 nM; in the assay on MCF7/ERα Y537S cells it was 13.8 nM.
For `O=C1CC[C@H](N2Cc3cc(N4CCN(CC5CCN(c6ccc([C@@H]7c8ccc(O)cc8CCC78CCOCC8)cc6)CC5)CC4)ccc3C2=O)C(=O)N1` [Example 22, (S)-3-(5-(4-((1-(4-((R)-6-Hydroxy-2′,3,3′,4,5′,6′-hexahydro-1H-spiro[naphthalene-2,4′-pyran]-1-yl)phenyl)piperidin-4-yl)methyl)piperazin-1-yl)-1-oxoisoindolin-2-yl)piperidine-2,6-dione] the same measures were 3.13 nM and 9.19 nM.
`O=C1CCC(N2Cc3cc(N4CCN(CC5CCN(c6ccc([C@H]7c8ccc(O)cc8CC[C@H]7C7CCCCC7)cc6)CC5)CC4)ccc3C2=O)C(=O)N1` (stereo partly drawn) [Example 15-2, 3-(5-(4-((1-(4-((1S,2S)-2-Cyclohexyl-6-hydroxy-1,2,3,4-tetrahydronaphthalen-1-yl)phenyl)piperidin-4-yl)methyl)piperazin-1-yl)-1-oxoisoindolin-2-yl)piperidine-2,6-dione]: the IC50 in the assay with MCF7 cells stood at 14.3 nM; in the assay on MCF7/ERα Y537S cells, 31.4 nM.
For `O=C1CC[C@H](N2Cc3cc(N4CCN(CC5CCN(c6ccc([C@@H]7c8ccc(O)cc8CC[C@@H]7C7CCC7)cc6F)CC5)CC4)ccc3C2=O)C(=O)N1` [Example 18-1, (S)-3-(5-(4-((1-(4-((1R,2R)-2-Cyclobutyl-6-hydroxy-1,2,3,4-tetrahydronaphthalen-1-yl)-2-fluorophenyl)piperidin-4-yl)methyl)piperazin-1-yl)-1-oxoisoindolin-2-yl)piperidine-2,6-dione], in that order: 1.35 nM and 7.77 nM.
For `CC(C)(C)C[C@H]1CCc2cc(O)ccc2[C@H]1c1ccc(N2CCC(CN3CCN(c4ccc5c(c4)CN([C@H]4CCC(=O)NC4=O)C5=O)CC3)CC2)cc1` [Example 39, (S)-3-(5-(4-((1-(4-((1R,2R)-6-Hydroxy-2-neopentyl-1,2,3,4-tetrahydronaphthalen-1-yl)phenyl)piperidin-4-yl)methyl)piperazin-1-yl)-1-oxoisoindolin-2-yl)piperidine-2,6-dione] the same measures were 5.23 nM and 15.8 nM.
For `O=C1CCC(N2Cc3cc(N4CCN(CC5CCN(c6ccc([C@@H]7c8ccc(O)cc8CCC78CCC8)cc6)CC5)CC4)ccc3C2=O)C(=O)N1` (mixture of isomers) [Example 23-1, 3-(5-(4-((1-(4-((R)-6′-Hydroxy-3′,4′-dihydro-1′H-spiro[cyclobutane-1,2′-naphthalen]-1′-yl)phenyl)piperidin-4-yl)methyl)piperazin-1-yl)-1-oxoisoindolin-2-yl)piperidine-2,6-dione], the results for the IC50 in the assay on MCF7 cells and in the assay with MCF7/ERα Y537S cells were 2.39 nM and 7.53 nM, respectively.
